In patent publication US7494976B2, “Caveolin peptides and their use as therapeutics” (Yale University, priority 2000, dated 2009):
“Also recorded” adds a separate entry of the source.

Experiments:
isolated mouse aortas = test: Sodium nitroprusside induced (endothelium independent) relaxation of mouse aorta; details: 10 μM peptide, twenty hours; SNP 10 μM
HepG-2 tumors = test: HepG-2 tumor growth in nude mice; assay type: in vivo, mouse; details: 2.5 mg/kg, day fourteen
Description: The ability of the AP-Cav peptide to influence tumor growth in vivo was also examined. Nude mice were injected with the HepG-2 cells, a human hepatocarcinoma line, and the effects of AP-Cav and AP-Cav-X examined after daily administration of the peptides intraperitoneal. For HepG-2 cells implants in nude mice, the human hepatocarcinoma cell line, HepG-2, was cultured in minimal essential media with 10% fetal bovine serum, 2 mM L-glutamine, penicillin and streptomycin. Cells were grown on 150 mm dishes up to 80% confluence, trypsinized and ressuspended in serum free media. Viable cells were counted using the trypan blue exclusion method. A cell suspension was prepared at a density of 5×10^7 cells/ml. Nude mice were then injected in the flank with 100 μl of the HepG-2 cell suspension.
When the tumors reached a solid palpable mass (7-10 days), treatment with the different drugs began. Peptides were dissolved in 0.01% (v/v) DMSO and administered daily by i.p. injection (100 μl/20 gram mouse) for fourteen days. Tumor volume was determined every day using the formula width^2×length×0.52. For histochemistry tumors were excised from the animal at day fourteen, washed in phosphate buffered saline and fixed in 70% ethanol. […] Images were captured using a Zeiss microscope coupled to a CCD camera and were recorded with the NIH Image program.

isolated mouse aorta [1] = test: Ach-induced relaxation of isolated mouse aortic rings (organ bath); details: 10 μM peptide, twenty hours incubation, PE precontracted rings
Description: (§1) For isolated mouse aortic rings preparations, male C57 black mice (5-7 weeks of age) were anesthetized with methoxyflurane and sacrificed by exsanguination. The thoracic aorta was dissected and cut into cylindrical segments of three millimeters in length. Using a sterile 48-well tissue culture plate, each ring was incubated in a total volume of one ml with either peptides or vehicle (DMSO) diluted in DMEM supplemented with penicillin (100 units/ml), streptomycin (100 μg/ml) and L-glutamine (1 mM). The plate was incubated with 5% CO2. Following incubation with the peptides (one, six, twelve or twenty hours), rings were washed in oxygenated (95% O2-5% CO2) Krebs-Henseleit bicarbonate buffer solution (KHS) of the following composition (NaCl—118.3 mmol/L, KCl—4.7 mmol/L, CaCl2—2.5 mmol/L, MgSO4—1.2 mmol/L, KH2PO4—1.2 mmol/L, NaHCO3—25 mmol/L, glucose—5.6 mmol/L at 37° C. with ibuprofen (10 μM). The rings were suspended by two tungsten wires ([…] thickness) inserted into the lumen and mounted in a vessel myograph system (five ml chamber, Kent Scientific). The mouse aortas were submitted to a resting tension of 1.5 grams and isometric tension was recorded using a force transducer coupled to a MacLab data acquisition system. […] In some experiments concentration-response curves to the contractile effects of PE were monitored.

[2] = tested on: carrageenan induced paw edema; test: Murine carrageenan induced paw edema model; assay type: in vivo, mouse; details: 1 mg/kg, paws 48 hours post-injection, H&E
Description: For in vivo inflammation studies the murine carrageenan induced paw edema model was used. Briefly, male, Swiss mice (25-30 grams) were divided in groups (n=6-7) and lightly anaesthetised with methoxyflurane. Each group of animals received a subplantar administration of 50 μl of 1% (w/v) λ carrageenan. Paw volume was measured using a hydroplethismometer modified for measuring small volumes (Ugo Basile) immediately before the carrageenan injection and twenty-four and forty-eight hours thereafter. The increase in paw volume is evaluated as the difference between paw volume at each time point and the basal volume. AP-Cav (0.3, 1 mg/kg i.p.) AP-Cav-X (1 mg/kg i.p.) and dexamethasone (0.1 mg/kg s.c.) were administered at the time of carrageenin administration (time zero) and at twenty-four and forty-eight hours. In a separate series of experiments, forty-eight hours post carrageenan injections, animals were sacrificed by cervical dislocation and both paws were cut. The right paws were embedded in OCT medium and cross sections ([…] of thickness) were obtained for staining with hematoxylin and eosin.

mouse aortic rings = test: L-NAME induced contraction of peptide-pretreated mouse aortic rings; details: vessels pretreated with 10 μM peptide; L-NAME 100 μM
Description: as §1, with “monitored. […]” for “monitored.”

isolated mouse aorta [3] = test: Phenylephrine-induced contraction of isolated mouse aorta; details: 10 μM peptide preincubation
Description: as §1

vascular leakage = test: Mustard oil induced Evans blue extravasation in the mouse ear (vascular permeability); assay type: in vivo; details: 2 mg/kg i.p., forty-five minute pretreatment; read after thirty minutes
Description: FIG. 10—AP-caveolin peptide reduces vascular leakage. Mice were pretreated with AP-Cav, AP-Cav-X (2 mg/kg of each, i.p.) or L-NAME (30 mg/kg, i.p.) for forty-five minutes followed by Evans blue administration (30 mg/kg, i.v.). Mustard oil was applied to the ventral and dorsal side of the right ear one minute after Evans blue injection. The extent of Evans blue extravasation was assessed after thirty minutes (n=4 mice per group for vehicle and L-NAME treated mice and n=5 for AP-Cav and AP-Cav-X treated mice; *p<0.05). (D) Representative pictures of mice subjected to mustard oil induced inflammation.
To directly assess if the AP-peptide can influence vascular leakage in an additional model, we treated mice with vehicle, AP-Cav, AP-Cav-X (2 mg/kg, i.p. for each; forty-five minute pretreatment) or L-NAME (30 mg/kg, i.p., […] pretreatment) and examined the ability of mustard oil to induce the extravasation of Evans blue, as an index of vascular permeability. […] Thus, in two distinct models, AP-Cav reduces inflammation likely through attenuating eNOS-dependent blood flow and/or permeability changes evoke by inflammatory stimuli.

[4] = tested on: bovine aortic endothelial cells (BAEC); test: Ionomycin stimulated NO release from cultured endothelial cells (chemiluminescence); assay type: cell-based; details: 1 μM peptide six hours; ionomycin 1 μM thirty minutes
Description: For measurement of nitric oxide release from cultured endothelial cells, bovine aortic endothelial cells (BAEC) were cultured in high glucose Dulbecco's modified Eagle's medium (DMEM) containing 10% (v/v) fetal bovine serum, penicillin, streptomycin and L-glutamine. For measurement of ionomycin stimulated NO release, confluent BAEC were cultured in […]. Cells were washed and media was changed to serum free DMEM containing peptides or vehicle (0.01% DMSO). Following a six hour incubation, peptides were washed out and cells were stimulated with ionomycin (1 μM) for thirty minutes. Media was collected and processed for the measurement of nitrite (NO2—), the stable breakdown product of NO in aqueous solution, by NO-specific chemiluminescence. Samples containing NO2— were refluxed in glacial acetic acid containing sodium iodide. […] In all experiments, NO2— release was inhibitable by a NOS inhibitor.

prostacyclin production = test: Prostacyclin release from mouse aortic rings (6-keto-PGF1α by EIA); details: peptide twenty hours; Ach 1 μM thirty minutes
Description: To further test the specificity of AP-Cav, Ach-induced prostacyclin production was measured. For measurement of prostacyclin release, after twenty hour incubation period, aortic segments (4-5 mm) were placed in sterile 48-well tissue culture plates with 300 μl of KHS at 37° C. for thirty minutes in an incubator. Then aliquots of […] were taken in order to measure the basal release of prostacyclin. Ach (1 μM) was added and the plate was kept in the incubator for an additional thirty minutes. Aliquots were then taken in order to measure the Ach-stimulated release of prostacyclin. This protocol was performed in absence or in presence of ibuprofen (10 μM). The aliquots were frozen and prostacyclin release was measured as the stable breakdown product, 6-keto-PGF1α, by EIA (Amersham).

AP-Cav-X: Scrambled control peptide Cav-X (WGIDKAFFTTSTVTYKWFRY, SEQ ID NO: 9) fused to the antennapedia internalization sequence; SEQ ID NO: 12 (RQIKIWFQNRRMKWKKWGIDKAFFTTSTVTYKWFRY)
effect on vasorelaxant properties of sodium nitroprusside (isolated mouse aortas): had no effect | tumor morphology (hematoxylin and eosin) (HepG-2 tumors): classical epitheliod appearance and were highly vascularized | effect on Ach-induced relaxation (isolated mouse aorta [1]): did not influence Ach-induced relaxation | cellular infiltration into the sites of inflammation (histology) [2]: did not show marked differences | further increase in isometric tension by L-NAME (mouse aortic rings): further increased isometric tension | potentiation of the vasoconstrictor actions of phenylephrine (isolated mouse aorta [3]): but not AP-Cav-X resulted in potentiation | vascular leak (Evans blue extravasation) (vascular leakage): dilated vessels and diffuse blue dye in the periphery of the right ear | calcium ionophore stimulated NOx release [4]: but not AP-Cav-X blocked | basal or Ach stimulated prostacyclin production (6-keto-PGF1α) (prostacyclin production): Neither AP-Cav-X nor AP-Cav influenced; also recorded: do not affect Ach-induced prostacyclin release
